Literature values, collected in PMC6958329, “New ^55Co-labeled Albumin-Binding Folate Derivatives as Potential PET Agents for Folate Receptor Imaging” (Pharmaceuticals, 2019).
Read-outs that look alike come from different tables or passages of the source.

Tested on: tumor
Parameters: method as in PMID 27145400
Details: previously reported, cited from earlier work

| Compound | tumor uptake (4 h post-injection) | tumor uptake (24 h post-injection) |
| --- | --- | --- |
| Nc1nc2ncc(CNc3ccc(C(=O)N[C@@H](CCC(=O)NC(CCCCNC(=O)CCC(C(=O)O)N4CCN(CC(=O)O)CCN(CC(=O)O)CC4)C(=O)NC(CCCCNC(=O)CCCc4ccc(I)cc4)C(=O)O)C(=O)O)cc3)nc2c(=O)[nH]1.[64Cu] (stereo partly drawn) [[^64Cu]Cu-rf42] | 14.5% ± 1.0% | 16% ± 4% |
| Nc1nc2ncc(CNc3ccc(C(=O)N[C@@H](CCC(=O)NC(CCCCNC(=O)CCC(C(=O)O)N4CCN(CC(=O)O)CCN(CC(=O)O)CC4)C(=O)NC(CCCCNC(=O)CCCc4ccc(I)cc4)C(=O)O)C(=O)O)cc3)nc2c(=O)[nH]1.[68Ga] (stereo partly drawn) [[^68Ga]Ga-rf42] | 12% ± 2% |  |
